Source: patent US20230414839A1, “COATED MEDICAL PRODUCT” (HEMOTEQ AG, priority 2020, published 2023)

Columns and labels:
[1] = cited from earlier work
[2] = preparation and stability of crystal suspensions of microcrystalline rapamycin / everolimus in solutions of different tri-O-acylglycerols (Examples 2, 3); settings: ethyl acetate/heptane solution; standing and temperature elevation
Excerpt: In the first step, solutions of tri-O-acylglycerols were first prepared in a solvent mixture. Subsequently, the solutions were combined with microcrystals of rapamycin and everolimus to investigate which tri-O-acylglycerols could be used to obtain stable crystal suspensions. The composition of the solvents and solvent mixture varied depending on the active agent used. The solutions and solvent mixtures prepared in the example apply to rapamycin (SIR) and everolimus (EVR). For the preparation of the solutions, an ethyl acetate/heptane solvent mixture was used here as an example.
To prepare the solutions, 770 mg of the respective tri-O-acylglycerol and optionally 150 mg BHT were dissolved in 14 g ethyl acetate (15.6 mL). Then, 57.4 g of n-heptane (84.4 mL) was added. Subsequently, homogenization and filtration were performed. The total volume of the solvent mixture is 100 mL.
To a precisely weighed amount of dry microcrystals of the previously prepared limus active agent, a defined amount of the solutions containing tri-O-acylglycerol and optionally antioxidant is carefully added. It was investigated whether the microcrystals of the limus active agent are not soluble in the solutions and whether suspensions are formed.
To check whether crystal suspension can be prepared, to each 200 mg of rapamycin in the form of microcrystals or 200 mg of everolimus in the form of microcrystals were carefully added 10 mL of one of the solutions 1a) to 1t) at room temperature. Three mixtures of 10 mL of solution for each solution were prepared. After combining, it was tested whether the microcrystals of limus active agents dissolved directly in the solutions. For solutions where there was no immediate dissolution of the microcrystals of the limus active agents, the suspensions of the solutions without antioxidant were allowed to stand for a period of 100 h and tested again to see if the microcrystals of the limus active agents dissolved.
Three mixtures of 10 mL of solution for each solution were prepared. After combining, it was tested whether the microcrystals of limus active agents dissolved directly in these solutions. For solutions where there was no immediate dissolution of the microcrystals of the limus active agents, the suspensions of the solutions without antioxidant were allowed to stand for a period of 100 hours and tested again to see if the microcrystals of the limus active agents dissolved.

CCCCCCCCC(=O)OCC(COC(=O)CCCCCCCC)OC(=O)CCCCCCCC [Trinonanoylglycerol, trinonanoylglycerol]
solubility in water [1]: practically insoluble in water
stability of the crystal suspension of microcrystalline everolimus and rapamycin with the tri-O-acylglycerol [2]: remained stable after 24-48 hours and under temperature elevation
